Data taken from patent publication US8716478B2, “Boron-containing small molecules” (Anacor Pharmaceuticals, Inc., priority 2010, dated 2014).

What was measured:
[1] = tested on: TNF-α; assay: In vivo TNF-α release in LPS treated mice; parameters: species or system Swiss Webster mice
Description: In vivo TNF-α release was measured in Swiss Webster mice, 10/group. Animals were dosed via oral gavage with drug 1% CMC suspension. Thirty minutes later LPS, 1.5 mg/kg was administered by intraperitoneal injection. Ninety minutes later animals were sacrificed, blood was collected by exsangination and serum prepared for analysis. TNF-α concentration was assessed by ELISA, non-drug treated animals had TNF-α levels 1000-3000 pg/mL. 6-(1-Hydroxy-1,3-dihydrobenzo[c][1,2]oxaborol-5-yloxy)-2-(2-isopropoxyethoxy)nicotinonitrile (D140) and 6-(1-hydroxy-1,3-dihydrobenzo[c][1,2]oxaborol-5-yloxy)-2-(4-oxopentyloxy)nicotinonitrile (D141) are disclosed in U.S. patent application Ser. No. 12/399,015, filed Mar. 5, 2009.

[2] = tested on: human PDE4 enzyme; assay: Phosphodiesterase 4 (PDE4) inhibition, semi-purified enzyme from human U937 cells; format: biochemical; settings: 1 μM cAMP, 20 minutes at 25° C.; read-out: PDE4 IC50
[3] = tested on: TNF-α in peripheral blood mononuclear cells (PBMCs); assay: TNF-α inhibition in LPS-stimulated peripheral blood mononuclear cells; format: cell-based; settings: PBMC; PBMCs, LPS 1 μg/mL for 24 h; read-out: Proinflammatory TNF-α IC50
How it was run: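 Pooled human PBMCs (10-20 donors), 5×10^5 cells/well in RPMI with 10% FCS, <2% DMSO final, stimulated with LPS at 1 μg/mL for 24 h with compound. TNF-α in supernatant measured by cytometric bead array; IC50 by four-parameter logistic fit.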

[4] = Pharmacokinetics and oral bioavailability after IV and PO dosing; format: in vivo, female CD-1 mice; settings: plasma
Description: The objective of this study was to evaluate the pharmacokinetics and oral bioavailability of PDE4 inhibitors following intravenous (IV) administration and oral (PO) doses in female CD-1 mice.
After dosing, blood samples were collected through 24 h, twice from each animal at specific times (3 mice/time point), into microcentrifuge tubes containing K2EDTA (anticoagulant), stored on wet ice and processed for plasma. The plasma samples were analyzed for concentrations of parent compound by LC/MS/MS using an internal standard/peak area method. Pharmacokinetic analysis of the mean plasma concentration-time profiles following IV and PO administration was performed.
[…] Dosing solutions for intravenous administration were prepared in 55% PEG300/25% PG/20% water. Oral dosing used a suspension prepared in 1% CMC in water with 0.1% Tween 80.
After dosing, blood samples were collected through 24 h, twice from each animal via retro-orbital bleed (˜0.1 mL, 1st time point) or cardiac puncture (˜0.6 mL, 2nd time point) at specific times (3 mice/time point), into microcentrifuge tubes containing K2EDTA (anticoagulant) and stored on wet ice prior to processing.
Plasma was prepared by centrifugation of blood samples for 6 min at approximately 2000×g or 6000 rpm at 4° C. All processed plasma samples (˜50 μL and 300 μL) were transferred to analysis tubes, placed on dry ice immediately and later stored at −80° C. until analysis for concentrations of experimental compound by LC/MS/MS.
Mouse IV clearance, Mouse Oral AUC and Oral Bioavailability are provided below. 6-(1-Hydroxy-1,3-dihydrobenzo[c][1,2]oxaborol-5-yloxy)-2-(2-isopropoxyethoxy)nicotinonitrile (D140) and 6-(1-hydroxy-1,3-dihydrobenzo[c][1,2]oxaborol-5-yloxy)-2-(4-oxopentyloxy)nicotinonitrile (D141) are disclosed in U.S. patent application Ser. No. 12/399,015, filed Mar. 5, 2009.

[5] = tested on: Brugia malayi; assay: Brugia malayi in vitro assay, adult female worms; settings: 50 uM
Description: Adult female worms are shipped from TRS Labs Inc. (Nonglak Supakorndej, Lab Director, 295 Research Dr., Athens, Ga. 30605; 706-549-0764) via Fed Ex. Individual worms are shipped in 2 mls vials with RPMI on Mondays and arrive at the […] Center lab on Tuesday mornings. Individual worms are poured into each well (24-well tissue culture plates) to avoid handling worms since they are very delicate and easily broken. Transport media is removed and replaced with 0.5 mls of RPMI-1640 (25 mM HEPES, 2 g/L NaHCO3, Antibiotic/Antimycotic, 5% HI FBS). Worms are maintained in a 37° C. 5% CO2 incubator. Compounds are added directly to each duplicate well (5 ul of 5 mM for a final concentration of 50 uM). DMSO (5 ul) is used as a negative control and Ivermectin (Sigma) is used as a positive control at 100 uM/well and 20 uM/well. Adult filarial nematodes can shed/give birth to microfilarial worms (mf) during the course of the assay. Wells were reviewed for the presence of mf, and the viability of mf, by visual observation of the well on the last day of observation (Day 7). Plates are examined once a day for 4-7 days. […] If changes are observed, worms are more closely examined under a dissecting microscope.

SMILES: CC(=O)CCCOc1nc(Oc2ccc3c(c2)COB3O)c(Cl)cc1C#N [Compound D231, 5-Chloro-6-(1-hydroxy-1,3-dihydrobenzo[c][1,2]oxaborol-5-yloxy)-2-(4-oxopentyloxy)nicotinonitrile]
- % Inhibition of TNFa Blood Levels in LPS Treated Mice ([1]; Oral Dose 0.03 mg/kg): 0%
- % Inhibition of TNFa Blood Levels in LPS Treated Mice ([1]; Oral Dose 0.1 mg/kg): 22%
- % Inhibition of TNFa Blood Levels in LPS Treated Mice ([1]; Oral Dose 0.3 mg/kg): 33.6%
- % Inhibition of TNFa Blood Levels in LPS Treated Mice ([1]; Oral Dose 1 mg/kg): 69.5%
- % Inhibition of TNFa Blood Levels in LPS Treated Mice ([1]; Oral Dose 1.5 mg/kg): 58%
- % Inhibition of TNFa Blood Levels in LPS Treated Mice ([1]; Oral Dose 3 mg/kg): 75.6%
- % Inhibition of TNFa Blood Levels in LPS Treated Mice ([1]; Oral Dose 5 mg/kg): 85.5%
- % Inhibition of TNFa Blood Levels in LPS Treated Mice ([1]; Oral Dose 10 mg/kg): 85.6%
- % Inhibition of TNFa Blood Levels in LPS Treated Mice ([1]; Oral Dose 15 mg/kg): 81.3%
- % Inhibition of TNFa Blood Levels in LPS Treated Mice ([1]; Oral Dose 30 mg/kg): 97.3%
- IC50 [2]: 0.8 nM
- IC50 [3]: 0.44 nM
- bioavailability ([4]; female, CD-1, mouse, po): 96%
- AUC ([4]; female, CD-1, mouse, 10 mg/kg oral suspension dose): 8500 ng·h/mL
- clearance ([4]; mouse, 5 mg/kg, female CD-1 mice, intravenous): 25 mL/min/kg
- worm activity score / phenotype, Day 3 ([5]; trial one): 2 to 3
- worm activity score / phenotype, Day 3 ([5]; trial two): 2 to 3
